Experimental data from patent US10189887B2, “Polypeptides and uses thereof for reducing CD95-mediated cell motility” (INSERM (INSTITUT NATIONAL DE LA SANTÉ ET DE LA RECHERCHE …, priority 2014, dated 2019).

Legend:
Type in all cases: cell-based
murin CD95 = experiment: Calcium response in mouse CD95-expressing CEM-IRC cells; conditions: CEM-IRC cells reconstituted with wild type mouse CD95
CD95/PLCγ1 = target: T1, CD95/PLCγ1 (Homo sapiens, UniProt P19174); experiment: PLCγ1 recruitment to CD95 (immunoprecipitation and immunoblotting)
T1 construct: endogenous in cells; host or cells: CEM (human leukemic T-cell line)
T1 sequence (P19174 2-1290 limits assumed): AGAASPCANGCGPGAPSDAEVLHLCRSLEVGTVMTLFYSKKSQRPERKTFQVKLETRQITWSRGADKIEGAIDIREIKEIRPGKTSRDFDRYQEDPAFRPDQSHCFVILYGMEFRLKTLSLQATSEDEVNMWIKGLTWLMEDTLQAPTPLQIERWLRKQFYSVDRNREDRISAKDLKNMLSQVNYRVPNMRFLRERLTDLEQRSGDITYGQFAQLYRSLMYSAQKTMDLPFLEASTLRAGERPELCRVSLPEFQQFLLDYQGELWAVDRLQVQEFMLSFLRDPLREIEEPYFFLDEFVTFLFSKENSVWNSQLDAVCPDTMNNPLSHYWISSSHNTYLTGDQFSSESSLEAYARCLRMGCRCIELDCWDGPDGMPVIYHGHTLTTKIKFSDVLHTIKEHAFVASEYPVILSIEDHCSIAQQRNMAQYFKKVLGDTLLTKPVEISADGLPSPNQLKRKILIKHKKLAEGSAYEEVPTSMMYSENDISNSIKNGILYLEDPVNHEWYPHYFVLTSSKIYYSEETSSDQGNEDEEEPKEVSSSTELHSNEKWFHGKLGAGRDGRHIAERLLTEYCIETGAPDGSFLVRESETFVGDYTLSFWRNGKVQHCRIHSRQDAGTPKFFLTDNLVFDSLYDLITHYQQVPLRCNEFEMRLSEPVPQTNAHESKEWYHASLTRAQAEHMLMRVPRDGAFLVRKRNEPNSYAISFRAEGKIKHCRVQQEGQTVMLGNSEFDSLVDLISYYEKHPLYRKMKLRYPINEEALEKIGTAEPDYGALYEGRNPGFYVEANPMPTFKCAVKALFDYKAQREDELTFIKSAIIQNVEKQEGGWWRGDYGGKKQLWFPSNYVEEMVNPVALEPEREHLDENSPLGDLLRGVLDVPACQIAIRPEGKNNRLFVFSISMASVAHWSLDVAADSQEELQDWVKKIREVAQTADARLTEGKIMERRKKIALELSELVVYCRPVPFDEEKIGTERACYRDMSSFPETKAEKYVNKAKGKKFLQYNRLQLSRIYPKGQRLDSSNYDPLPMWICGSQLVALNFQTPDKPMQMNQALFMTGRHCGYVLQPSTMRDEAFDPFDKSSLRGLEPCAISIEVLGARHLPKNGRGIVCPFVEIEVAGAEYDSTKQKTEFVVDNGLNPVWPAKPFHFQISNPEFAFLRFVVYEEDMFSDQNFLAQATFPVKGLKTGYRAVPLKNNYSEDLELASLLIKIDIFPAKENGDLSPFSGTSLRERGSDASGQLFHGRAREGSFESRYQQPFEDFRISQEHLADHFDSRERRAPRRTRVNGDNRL
Method: T-cells (5×10^7 cells per condition) were stimulated with Ig-CD95L or cl-CD95L (100 ng/mL) for indicated times at 37° C. Cells were lysed, incubated with APO1.3 (1 ug/mL) for 15 min at 4° C. and CD95 was immunoprecipitated using A/G protein-coupled magnetic beads (Ademtech, Pessac, France) for 1 h. After extensive washing, the immune complex was resolved by SDS-PAGE and immunoblotting was performed with indicated antibodies.
Cells were lyzed for 30 minutes at 4° C. in lysis buffer (25 mM HEPES pH 7.4, 1% v/v Triton X-100, 150 mM NaCl, 2 mM EGTA supplemented with a mix of protease inhibitors (Sigma-Aldrich)). Protein concentration was determined by the bicinchoninic acid method (PIERCE, Rockford, Ill., USA) according to the manufacturer's protocol. Proteins were separated on a 12% SDS-PAGE and transferred to a nitrocellulose membrane (GE Healthcare, Buckinghamshire, England). The membrane was blocked 15 minutes with TBST (50 mM Tris, 160 mM NaCl, 0.05% v/v Tween 20, pH 7.8) containing 5% w/v dried skimmed milk (TBSTM). Primary antibody was incubated overnight at 4° C. in TBSTM. The membrane was intensively washed (TBST) and then the peroxydase-labeled anti-rabbit or anti-mouse (SouthernBiotech, Birmingham, Ala., US) was added for 45 minutes. The proteins were visualized with the enhanced chemiluminescence substrate kit (ECL, GE Healthcare).

[1] = test system: apoptotic signaling pathway; experiment: CD95 apoptotic signaling pathway; conditions: TAT-CID treatment

Substance: TAT-CID: cell penetrating peptide linking the 36-amino acid-stretch of CID (CD95 residues 175 to 210) to the HIV-TAT sequence; SEQ ID NO: 6 (RKKRRQRRRKRKEVQKTCRKHRKENQGSHESPTLNPETVAINLSD; TAT-CID)
- CD95-mediated Ca^2+ response (murin CD95): failed to inhibit the CD95-mediated Ca^2+ response
- PLCγ1 recruitment to CD95 (CD95/PLCγ1; T cell lines Jurkat and CEM pre-incubated 1 h with 10 μM, cl-CD95L 100 ng/mL): impaired PLCγ1 recruitment
- PLCγ1 binding to CD95 (CD95/PLCγ1; activated T lymphocytes from healthy subjects, pre-incubation): inhibited the PLCγ1 binding to CD95
- execution of the apoptotic signaling pathway [1]: did not affect the execution of the apoptotic signaling pathway
